In US9295638B2, “Prevention and treatment of cardiovascular diseases using systems and methods for transdermal nitric oxide delivery” (priority 2012, dated 2016):

Columns and labels:
[1] = Nitric oxide absorption by carriers (weight gain on bubbling NO gas); format: physicochemical; conditions: NO gas bubbled 40 hr, 25 °C
Protocol: This example illustrates one technique for preparing a composition in accordance with one embodiment of the invention. An accurate amount of a carrier (HNC 167-62) (see below) was introduced into a system. The carrier weight used in these experiments was approximately 250 g and the vessel size was 500 ml. The vessel was equipped with a mechanical stirrer, gas inlet, and gas outlet and was previously purged with argon for about an hour. The temperature of the carrier was kept at about 25-30° C. NO gas regulated at 5 psi (1 psi is about 6,900 Pa) and was then introduced at a controlled rate of about 1 bubble/s with continuous stirring. […] After 6 hours, the weight of the carrier had increased by 0.15%, by 12 hours by 0.25%, and by 24 hours by 0.56%. These increases in weight were believed to be significant considering the relative small molecular weight of NO versus the carrier. […] The carrier also can solidify upon cooling if the carrier is initially a solid at lower temperature.
Each carrier was taken in a 500 mL three necked flask equipped with a mechanical stirrer, gas inlet and a gas outlet. The system was purged with argon for one hour at room temperature (25° C.). Then nitric oxide gas was bubbled into the system. Then, nitric oxide gas was bubbled through carrier for stipulated amount of time. The changes in weight and color were noted. […]

[2] = test system: micro-capillary blood flow to skin; experiment: Laser Doppler capillary blood flow in humans, 10,000 ppm NO in closed chamber (Example 6); format: in vivo; conditions: applied to the skin at 1/10% in alcohol
Excerpt: The formulation used in these studies contained nitric oxide dispersed in a lipid matrix. […] Nitric oxide is a very rapid acting molecule, and these studies used a system that employed laser Doppler with a covered chamber. The formulation was placed into the chamber and then attached to the skin by an adhesive layer on the covering. This provided a stable measuring device as determined by multiple normal evaluations of the capillary blood flow without treatment of nitric oxide.
A known positive control, methyl nicotinate, was applied to the skin at a concentration of 1/10% in alcohol. […] The vascular dynamics are such that when the blood vessels dilate physical parameters follow Bernoulli's law. This states that as one increases the diameter of a tube containing a liquid to flow will increase but the pressure and the speed of the liquid will decrease. The laser Doppler device accurately measured these parameters.
The test product was labeled as 10,000 ppm NO (nitric oxide). The study participants had 100 mg of the test product applied in a closed Hilltop chamber on the forearm. […]
A Moor Instruments DRT4 Laser Doppler Blood Flow Monitor (Devon, England) was used in these studies. The laser Doppler technique measured blood flow in the microcapillaries of the skin that are close to the skin surface and the blood flow in underlying arterioles and venules that help to regulate skin temperature. […]

[3] = test system: capillary circulation of the skin; experiment: Laser Doppler circulation in five human subjects (Example 8); format: in vivo; conditions: positive control formulation containing 0.1% methyl nicotinate
Excerpt: This example illustrates delivery of nitric oxide formulations to five human subjects, using procedures and formulations similar to those discussed in Example 6. Each person served as their own control for the testing. A Moor Instruments Laser Doppler was used to determine circulation. […] The formulations used produce positive, almost immediate results when applied to the skin which, in these studies, was manifested by vasodilatation of the cutaneous vascular system.
For each subject, the following creams were applied: a negative control formulation (containing no NO), 0.010 gram of a 10,000 ppm NO formulation, 0.020 gram of a 10,000 ppm NO formulation, and a positive control formulation containing 0.1% methyl nicotinate. The formulations were prepared using procedures similar to those discussed in Example 1.

Structure (SMILES): OCCCO [1,3-Propanediol, 1,3-propanediol]
- % Wt. gain [1]: 0.09%

Structure (SMILES): COC(=O)c1cccnc1 [methyl nicotinate]
- laser Doppler response of positive control [2]: rapid response typical of the vasodilator
- vasodilatation [3]: vasodilatation was observed
